This is an account of results in patent EP4741420A1, “PHARMACEUTICAL COMPOSITION FOR PREVENTING OR TREATING OBESITY COMPRISING GLP ANALOGUE AS ACTIVE INGREDIENT” (priority 2023, dated 2025).

For one series, the target named is GLP-1R (Homo sapiens, UniProt P43220). Description: GLP-1 activation: cell-based cAMP assay in GLP-1R/CHO cells. The following applies: Example 5, relative to Exendin-4.
The target of a further series is T1, GLP-2 (Homo sapiens, UniProt O95838).
T1 sequence (O95838 1-553): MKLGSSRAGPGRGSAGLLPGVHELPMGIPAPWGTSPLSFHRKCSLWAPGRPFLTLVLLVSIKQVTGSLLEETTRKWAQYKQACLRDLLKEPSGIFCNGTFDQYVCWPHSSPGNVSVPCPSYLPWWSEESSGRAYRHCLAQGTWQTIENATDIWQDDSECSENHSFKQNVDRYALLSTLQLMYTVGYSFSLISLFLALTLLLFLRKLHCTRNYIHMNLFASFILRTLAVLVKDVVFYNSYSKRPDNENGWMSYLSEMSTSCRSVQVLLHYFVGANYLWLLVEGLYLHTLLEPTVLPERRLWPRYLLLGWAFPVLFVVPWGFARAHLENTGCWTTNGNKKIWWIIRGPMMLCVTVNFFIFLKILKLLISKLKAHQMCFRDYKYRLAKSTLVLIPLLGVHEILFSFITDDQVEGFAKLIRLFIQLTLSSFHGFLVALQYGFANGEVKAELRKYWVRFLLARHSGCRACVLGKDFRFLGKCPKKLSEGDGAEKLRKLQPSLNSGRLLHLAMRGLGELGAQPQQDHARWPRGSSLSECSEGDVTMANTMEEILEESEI
Description: GLP-2 activity, cell-based cAMP assay (same method as Example 2). The note with it: for GLP-2 activity Compared to GLP-2: Example 5, relative to GLP-2. For orientation: cAMP levels reflect the balance of adenylyl cyclase and phosphodiesterase activity.

Series [1] addresses GLP-1R (on GLP-1R/CHO cells, DiscoverX 95-0062C2) (UniProt P43220). Description: cell-based or functional assay.
For series [2] the following is noted: in vivo; cited from earlier work.
The nature of series [3]: Mouse PK after single subcutaneous administration, LC-MS/MS of plasma. It counts as in vivo, mice. The note with it: male, C57BL/6N, mouse, in vivo, sc. Here is the method: Each of the experimental groups and the control was subcutaneously administered once to the dorsal area of a total of 12 mice using a 1 mL syringe equipped with a 26-gauge needle at a dose of 0.2 mg/5 mL/kg. After drug administration, approximately 0.04 to 0.05 mL of blood was collected per individual at the time scheduled for the orbital vein (4 mice were alternately sampled), and the blood collection times were 1, 2, 4, 8, 24 ,32 ,48, 56, 72, 96, and 120 hours. All plasma samples were analyzed using a self-developed LC-MS/MS assay. Pharmacokinetic analysis of blood drugs was performed using non-compartmental analysis, and analysis of pharmacokinetic parameters was performed using Phoenix WinNolin 64 (Version. 8.3.5 340).

Peptide text beside a SMILES is read from it.

Chain of GLP-1R (P43220 24-463): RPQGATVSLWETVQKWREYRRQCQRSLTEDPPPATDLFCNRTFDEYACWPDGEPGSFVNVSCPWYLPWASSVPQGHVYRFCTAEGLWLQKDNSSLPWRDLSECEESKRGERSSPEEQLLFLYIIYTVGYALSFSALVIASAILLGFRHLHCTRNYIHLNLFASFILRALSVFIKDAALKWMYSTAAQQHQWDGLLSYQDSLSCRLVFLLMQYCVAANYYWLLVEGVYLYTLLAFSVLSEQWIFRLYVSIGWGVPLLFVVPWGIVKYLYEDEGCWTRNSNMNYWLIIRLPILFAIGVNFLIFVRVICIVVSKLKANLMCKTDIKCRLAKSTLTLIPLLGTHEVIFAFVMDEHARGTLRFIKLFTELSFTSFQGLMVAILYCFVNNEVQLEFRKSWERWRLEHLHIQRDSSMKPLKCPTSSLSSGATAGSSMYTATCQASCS
Chain of GLP-1R (on GLP-1R/CHO cells, DiscoverX 95-0062C2) (P43220 24-463 limits assumed): as the sequence (P43220 24-463) above

On to `CC[C@H](C)[C@H](NC(=O)[C@H](Cc1ccccc1)NC(=O)[C@H](CC(=O)O)NC(=O)[C@H](CCCNC(=N)N)NC(=O)[C@H](C)NC(=O)[C@H](C)NC(=O)[C@H](CC(C)C)NC(=O)[C@H](C)NC(=O)[C@H](CC(=O)O)NC(=O)[C@H](CC(C)C)NC(=O)[C@H](Cc1ccc(O)cc1)NC(=O)[C@@H](NC(=O)[C@H](CO)NC(=O)[C@H](CC(C)C)NC(=O)[C@H](CC(=O)O)NC(=O)[C@H](CO)NC(=O)[C@@H](NC(=O)[C@H](Cc1ccccc1)NC(=O)[C@@H](NC(=O)CNC(=O)[C@H](CCC(=O)O)NC(=O)C(C)(C)NC(=O)[C@@H](N)Cc1c[nH]cn1)[C@@H](C)O)[C@@H](C)O)[C@@H](C)O)C(=O)N[C@@H](CCCCNC(=O)CC[C@H](NC(=O)CCCCCCCCCCCCCCCCC(=O)O)C(=O)O)C(=O)N[C@@H](Cc1ccccc1)C(=O)N[C@@H](C)C(=O)N[C@@H](Cc1c[nH]c2ccccc12)C(=O)N[C@@H](CC(C)C)C(=O)N[C@H](C(=O)N[C@@H](CCC(N)=O)C(=O)N[C@H](C(=O)N[C@@H](CCCCN)C(=O)N[C@H](C(=O)N[C@H](C(=O)N[C@@H](CC(=O)O)C(=O)O)[C@@H](C)O)[C@@H](C)CC)[C@@H](C)O)[C@@H](C)CC` [HU020M7] (HELM PEPTIDE1{H.[Aib].E.G.T.F.T.S.D.L.S.T.Y.L.D.A.L.A.A.R.D.F.I.K.F.A.W.L.I.Q.T.K.I.T.D}|PEPTIDE2{[O=C(O)CCCCCCCCCCCCCCCCC(=O)[*:2]].[gGlu]}$PEPTIDE1,PEPTIDE2,24:R3-2:R2$$$V2.0; N-terminus and C-terminus assumed), for which the “GLP-1 activity Compared to GLP-1 (Exendin-4)” value at GLP-1R is 20.2%. Further, the “GLP-2 activity Compared to GLP-2” value on GLP-2 is reported as under 4.0%.

Regarding Semaglutide (peptide), in series [1], the GLP-1 activity, Compared to GLP-1 (Exendin-4) worked out at 24.5%.

As for GLP-1, the “half-life (t1/2)” value in series [2] is under 2 min.

In the case of `CC[C@H](C)[C@H](NC(=O)[C@H](Cc1ccccc1)NC(=O)[C@H](CC(=O)O)NC(=O)[C@H](CCCNC(=N)N)NC(=O)[C@H](C)NC(=O)[C@H](C)NC(=O)[C@H](CC(C)C)NC(=O)[C@H](C)NC(=O)[C@H](CC(=O)O)NC(=O)[C@H](CC(C)C)NC(=O)[C@H](Cc1ccc(O)cc1)NC(=O)[C@@H](NC(=O)[C@H](CO)NC(=O)[C@H](CC(C)C)NC(=O)[C@H](CC(=O)O)NC(=O)[C@H](CO)NC(=O)[C@@H](NC(=O)[C@H](Cc1ccccc1)NC(=O)[C@@H](NC(=O)CNC(=O)[C@H](CCC(=O)O)NC(=O)CNC(=O)[C@@H](N)Cc1c[nH]cn1)[C@@H](C)O)[C@@H](C)O)[C@@H](C)O)C(=O)N[C@@H](CC(N)=O)C(=O)N[C@@H](Cc1c[nH]c2ccccc12)C(=O)N[C@@H](CC(C)C)C(=O)N[C@H](C(=O)N[C@@H](CCC(N)=O)C(=O)N[C@H](C(=O)N[C@@H](CCCCN)C(=O)N[C@H](C(=O)N[C@H](C(=O)N[C@@H](CC(=O)O)C(=O)N[C@@H](CCCCN)C(=O)N[C@@H](CCCCNC(=O)CC[C@H](NC(=O)CCCCCCCCCCCCCCCCCCC(=O)O)C(=O)O)C(=O)O)[C@@H](C)O)[C@@H](C)CC)[C@@H](C)O)[C@@H](C)CC` [HU020M2] (HELM PEPTIDE1{H.G.E.G.T.F.T.S.D.L.S.T.Y.L.D.A.L.A.A.R.D.F.I.N.W.L.I.Q.T.K.I.T.D.K.K}|PEPTIDE2{[O=C(O)CCCCCCCCCCCCCCCCCCC(=O)[*:2]].[gGlu]}$PEPTIDE1,PEPTIDE2,35:R3-2:R2$$$V2.0; N-terminus and C-terminus assumed), at GLP-1R, the “GLP-1 activity Compared to GLP-1 (Exendin-4)” value was 1.5%. Also, the EC50 – broadly, the midpoint of the concentration-response curve – at GLP-2 (Example 5) was over 10 µM. Besides, the “GLP-2 activity Compared to GLP-2” value at GLP-2 is ~ 0.02%. In series [3], the Tmax (as a rule, the time at which the peak concentration occurs) is 12 h and the half-life (as a rule, how long it takes for the measured level to halve) is 954 min.
